Active and inactive are the calls of the source. The rule behind the calls is not given here.
Columns and labels:
Salmonella typhimurium [1] = assay: Antimicrobial activity against Salmonella enterica serovar Typhimurium LT2 DA10845 harboring pmrB (ATG to ATA, M186I mutant) grown in liquid culture; assay type: functional
Salmonella typhimurium [2] = assay: Antimicrobial activity against Salmonella enterica serovar Typhimurium LT2 DA6192 grown in liquid culture; assay type: functional
Salmonella typhimurium [3] = assay: Antimicrobial activity against Salmonella enterica serovar Typhimurium LT2 DA10833 harboring pmrB (GAA to AAA, E161K mutant) grown in liquid culture; assay type: functional
Salmonella typhimurium [4] = assay: Antimicrobial activity against Salmonella enterica serovar Typhimurium LT2 DA10840 harboring pmrA (CGC to CAC, R81H mutant) grown in liquid culture; assay type: functional
Salmonella typhimurium [5] = assay: Antimicrobial activity against Salmonella enterica serovar Typhimurium LT2 DA10826 harboring pmrA (GGG to GAG, G53E mutant) grown in liquid culture; assay type: functional
Salmonella typhimurium [6] = assay: Antimicrobial activity against Salmonella enterica serovar Typhimurium LT2 DA10859 harboring pmrB (GTG to GGG, V161G mutant) by Etest method; assay type: functional, organism-based; conditions: Salmonella enterica subsp. enterica serovar Typhimurium str. LT2
Salmonella typhimurium [7] = assay: Antimicrobial activity against Salmonella enterica serovar Typhimurium LT2 DA10875 harboring pmrB (GGG to AGG, G206R mutant) by Etest method; assay type: functional, organism-based; conditions: Salmonella enterica subsp. enterica serovar Typhimurium str. LT2
Salmonella typhimurium [8] = assay: Antimicrobial activity against Salmonella enterica serovar Typhimurium LT2 DA10853 pmrB AAT to TAT and N130Y mutant by Etest method; assay type: functional, organism-based; conditions: Salmonella enterica subsp. enterica serovar Typhimurium str. LT2
Salmonella typhimurium [9] = assay: Bactericidal activity against Salmonella enterica serovar Typhimurium LT2 DA10845 harboring pmrB M186I mutant at 16 mg/L after 30 mins by time kill study; assay type: functional, organism-based; conditions: Salmonella enterica subsp. enterica serovar Typhimurium str. LT2
Salmonella typhimurium [10] = assay: Antimicrobial activity against Salmonella enterica serovar Typhimurium LT2 DA10856 harboring pmrB (GTG to ATG, V161M mutant) by Etest method; assay type: functional, organism-based; conditions: Salmonella enterica subsp. enterica serovar Typhimurium str. LT2
Salmonella typhimurium [11] = assay: Antimicrobial activity against Salmonella enterica serovar Typhimurium LT2 DA10864 harboring pmrB (AGC to AGA, S305R mutant) by Etest method; assay type: functional, organism-based; conditions: Salmonella enterica subsp. enterica serovar Typhimurium str. LT2
Salmonella typhimurium [12] = assay: Bactericidal activity against Salmonella enterica serovar Typhimurium LT2 DA10840 harboring pmrA R81H mutant at 16 mg/L after 240 mins by time kill study; assay type: functional, organism-based; conditions: Salmonella enterica subsp. enterica serovar Typhimurium str. LT2
Salmonella typhimurium [13] = assay: Antimicrobial activity against Salmonella enterica serovar Typhimurium LT2 DA10857 harboring pmrA (CGC to TGC, R81C mutant) by Etest method; assay type: functional, organism-based; conditions: Salmonella enterica subsp. enterica serovar Typhimurium str. LT2
Salmonella typhimurium [14] = assay: Antimicrobial activity against Salmonella enterica serovar Typhimurium LT2 DA10848 harboring pmrB (ACG to CCG, T156P mutant) by Etest method; assay type: functional, organism-based; conditions: Salmonella enterica subsp. enterica serovar Typhimurium str. LT2
Salmonella typhimurium [15] = assay: Bactericidal activity against Salmonella enterica serovar Typhimurium LT2 DA10829 harboring pmrB S29R mutant at 16 mg/L after 30 mins by time kill study; assay type: functional, organism-based; conditions: Salmonella enterica subsp. enterica serovar Typhimurium str. LT2
Salmonella typhimurium [16] = assay: Antimicrobial activity against Salmonella enterica serovar Typhimurium LT2 DA10835 harboring (pmrB GTG to CTG, V161L mutant) by Etest method; assay type: functional, organism-based; conditions: Salmonella enterica subsp. enterica serovar Typhimurium str. LT2
Salmonella typhimurium [17] = assay: Antimicrobial activity against Salmonella enterica serovar Typhimurium LT2 DA10839 harboring pmrB (TCC to CCC, S124P mutant) by Etest method; assay type: functional, organism-based; conditions: Salmonella enterica subsp. enterica serovar Typhimurium str. LT2
Salmonella typhimurium [18] = assay: Antimicrobial activity against Salmonella enterica serovar Typhimurium LT2 DA10845 harboring pmrB (ATG to ATA, M186I mutant) by Etest method; assay type: functional, organism-based; conditions: Salmonella enterica subsp. enterica serovar Typhimurium str. LT2
Salmonella typhimurium [19] = assay: Bactericidal activity against Salmonella enterica serovar Typhimurium LT2 DA10840 harboring pmrA R81H mutant at 16 mg/L after 30 mins by time kill study; assay type: functional, organism-based; conditions: Salmonella enterica subsp. enterica serovar Typhimurium str. LT2
Salmonella typhimurium [20] = assay: Antimicrobial activity against Salmonella enterica serovar Typhimurium LT2 DA10874 harboring pmrB ACC to CCC, T147P mutant) by Etest method; assay type: functional, organism-based; conditions: Salmonella enterica subsp. enterica serovar Typhimurium str. LT2
Salmonella typhimurium [21] = assay: Antimicrobial activity against Salmonella enterica serovar Typhimurium LT2 DA10833 harboring pmrB (GAA to AAA, E161K mutant) by Etest method; assay type: functional, organism-based; conditions: Salmonella enterica subsp. enterica serovar Typhimurium str. LT2
Salmonella typhimurium [22] = assay: Antimicrobial activity against Salmonella enterica serovar Typhimurium LT2 DA10844 harboring pmrA (GGG to AGG, G15R mutant) by Etest method; assay type: functional, organism-based; conditions: Salmonella enterica subsp. enterica serovar Typhimurium str. LT2
Salmonella typhimurium [23] = assay: Antimicrobial activity against Salmonella enterica serovar Typhimurium LT2 DA6192 by Etest method; assay type: functional, organism-based; conditions: Salmonella enterica subsp. enterica serovar Typhimurium str. LT2
Salmonella typhimurium [24] = assay: Antimicrobial activity against Salmonella enterica serovar Typhimurium LT2 DA10837 harboring pmrB (CCG to CAG, P94Q mutant) by Etest method; assay type: functional, organism-based; conditions: Salmonella enterica subsp. enterica serovar Typhimurium str. LT2
Salmonella typhimurium [25] = assay: Bactericidal activity against Salmonella enterica serovar Typhimurium LT2 DA10829 harboring pmrB S29R mutant at 16 mg/L after 240 mins by time kill study; assay type: functional, organism-based; conditions: Salmonella enterica subsp. enterica serovar Typhimurium str. LT2
Salmonella typhimurium [26] = assay: Antimicrobial activity against Salmonella enterica serovar Typhimurium LT2 DA10850 harboring pmrA (GGG to AGG, G53R mutant) by Etest method; assay type: functional, organism-based; conditions: Salmonella enterica subsp. enterica serovar Typhimurium str. LT2
Salmonella typhimurium [27] = assay: Antimicrobial activity against Salmonella enterica serovar Typhimurium LT2 DA10831 harboring pmrB (AGC to CGC, S305R mutant) by Etest method; assay type: functional, organism-based; conditions: Salmonella enterica subsp. enterica serovar Typhimurium str. LT2
Salmonella typhimurium [28] = assay: Antimicrobial activity against Salmonella enterica serovar Typhimurium LT2 DA10840 harboring pmrA (CGC to CAC, R81H mutant) by Etest method; assay type: functional, organism-based; conditions: Salmonella enterica subsp. enterica serovar Typhimurium str. LT2
Salmonella typhimurium [29] = assay: Antimicrobial activity against Salmonella enterica serovar Typhimurium LT2 DA10862 harboring pmrB (GAG to GCG, E21A mutant) by Etest method; assay type: functional, organism-based; conditions: Salmonella enterica subsp. enterica serovar Typhimurium str. LT2
Salmonella typhimurium [30] = assay: Bactericidal activity against Salmonella enterica serovar Typhimurium LT2 DA10845 harboring pmrB M186I mutant at 16 mg/L after 240 mins by time kill study; assay type: functional, organism-based; conditions: Salmonella enterica subsp. enterica serovar Typhimurium str. LT2
Salmonella typhimurium [31] = assay: Antimicrobial activity against Salmonella enterica serovar Typhimurium LT2 DA10863 harboring pmrB (GGG to TGG, G206W mutant) by Etest method; assay type: functional, organism-based; conditions: Salmonella enterica subsp. enterica serovar Typhimurium str. LT2
Salmonella typhimurium [32] = assay: Bactericidal activity against Salmonella enterica serovar Typhimurium LT2 DA6192 at 1 mg/L after 30 mins by time kill study; assay type: functional, organism-based; conditions: Salmonella enterica subsp. enterica serovar Typhimurium str. LT2
Salmonella typhimurium [33] = assay: Antimicrobial activity against Salmonella enterica serovar Typhimurium LT2 DA10826 harboring pmrA (GGG to GAG, G53E mutant)by Etest method; assay type: functional, organism-based; conditions: Salmonella enterica subsp. enterica serovar Typhimurium str. LT2
Salmonella typhimurium [34] = assay: Antimicrobial activity against Salmonella enterica serovar Typhimurium LT2 DA10829 harboring pmrB (AGT to AGA, S29R mutant) by Etest method; assay type: functional, organism-based; conditions: Salmonella enterica subsp. enterica serovar Typhimurium str. LT2
Salmonella typhimurium [35] = assay: Antimicrobial activity against Salmonella enterica serovar Typhimurium LT2 DA10832 harboring pmrB (ACC to GCC, T92A mutant) by Etest method; assay type: functional, organism-based; conditions: Salmonella enterica subsp. enterica serovar Typhimurium str. LT2
[36] = Salmonella enterica subsp. enterica serovar Typhimurium str. LT2

## CC[C@H](C)[C@H](NC(=O)[C@H](CCCCN)NC(=O)[C@H](CCC(=O)O)NC(=O)[C@H](CCCCN)NC(=O)[C@H](CO)NC(=O)[C@H](CCCCN)NC(=O)[C@H](CCCNC(=N)N)NC(=O)[C@H](Cc1ccccc1)NC(=O)[C@H](Cc1ccccc1)NC(=O)[C@H](CC(=O)O)NC(=O)CNC(=O)[C@H](CC(C)C)NC(=O)[C@@H](N)CC(C)C)C(=O)NCC(=O)N[C@@H](CCCCN)C(=O)N[C@@H](CCC(=O)O)C(=O)N[C@@H](Cc1ccccc1)C(=O)N[C@@H](CCCCN)C(=O)N[C@@H](CCCNC(=N)N)C(=O)N[C@H](C(=O)N[C@H](C(=O)N[C@@H](CCC(N)=O)C(=O)N[C@@H](CCCNC(=N)N)C(=O)N[C@H](C(=O)N[C@@H](CCCCN)C(=O)N[C@@H](CC(=O)O)C(=O)N[C@@H](Cc1ccccc1)C(=O)N[C@@H](CC(C)C)C(=O)N[C@@H](CCCNC(=N)N)C(=O)N[C@@H](CC(N)=O)C(=O)N[C@@H](CC(C)C)C(=O)N[C@H](C(=O)N1CCC[C@H]1C(=O)N[C@@H](CCCNC(=N)N)C(=O)N[C@H](C(=O)N[C@@H](CCC(=O)O)C(=O)N[C@@H](CO)C(=O)O)[C@@H](C)O)C(C)C)[C@@H](C)CC)C(C)C)[C@@H](C)CC [CATHELICIDIN]
Salmonella typhimurium [1]
  MIC: 25 µM
Salmonella typhimurium [2]
  MIC: 15 µM
Salmonella typhimurium [3]
  MIC: 25 µM
Salmonella typhimurium [4]
  MIC: 25 µM
Salmonella typhimurium [5]
  MIC: 25 µM

## BLEOMYCIN
Salmonella typhimurium [1]; [36]
  MIC: 0.19 µg/mL
Salmonella typhimurium [2]; [36]
  MIC: 0.19 µg/mL
Salmonella typhimurium [3]; [36]
  MIC: 0.19 µg/mL
Salmonella typhimurium [4]; [36]
  MIC: 0.19 µg/mL
Salmonella typhimurium [5]; [36]
  MIC: 0.19 µg/mL

## COLISTIN
Salmonella typhimurium [6]
  MIC: 3 µg/mL
Salmonella typhimurium [7]
  MIC: 2 µg/mL
Salmonella typhimurium [8]
  MIC: 2 µg/mL
Salmonella typhimurium [9]
  Activity: Active
Salmonella typhimurium [10]
  MIC: 4 µg/mL
Salmonella typhimurium [11]
  MIC: 2.7 µg/mL
Salmonella typhimurium [12]
  Activity: Active
Salmonella typhimurium [13]
  MIC: 4 µg/mL
Salmonella typhimurium [14]
  MIC: 4.4 µg/mL
Salmonella typhimurium [15]
  Activity: Active
Salmonella typhimurium [16]
  MIC: 2 µg/mL
Salmonella typhimurium [17]
  MIC: 2.3 µg/mL
Salmonella typhimurium [18]
  MIC: 2.8 µg/mL
Salmonella typhimurium [19]
  Activity: Active
Salmonella typhimurium [20]
  MIC: 2.5 µg/mL
Salmonella typhimurium [21]
  MIC: 3 µg/mL
Salmonella typhimurium [22]
  MIC: 2.7 µg/mL
Salmonella typhimurium [23]
  MIC: 0.125 µg/mL
Salmonella typhimurium [24]
  MIC: 2.5 µg/mL
Salmonella typhimurium [25]
  Activity: Active
Salmonella typhimurium [26]
  MIC: 3 µg/mL
Salmonella typhimurium [27]
  MIC: 2.7 µg/mL
Salmonella typhimurium [28]
  MIC: 3 µg/mL
Salmonella typhimurium [29]
  MIC: 4 µg/mL
Salmonella typhimurium [30]
  Activity: Active
Salmonella typhimurium [31]
  MIC: 2 µg/mL
Salmonella typhimurium [32]
  Activity: Active
Salmonella typhimurium [33]
  MIC: 3 µg/mL
Salmonella typhimurium [34]
  MIC: 0.5 µg/mL
Salmonella typhimurium [35]
  MIC: 0.25 µg/mL

## H-RRRPRPPYLPRPRPPPFFPPRLPPRIPPGFPPRFPPRFP-NH2
Salmonella typhimurium [1]
  MIC: 3 µM
Salmonella typhimurium [2]
  MIC: 3 µM
Salmonella typhimurium [3]
  MIC: 3 µM
Salmonella typhimurium [4]
  MIC: 3 µM
Salmonella typhimurium [5]
  MIC: 3 µM
